Data reported in US11819569B2, “Treating inflammation with inhaled aspirin” (VECTURA INC., priority 2013, dated 2023).
Like-named read-outs stand apart in the source and are kept apart here.

Key:
[1] = Pharmacokinetic studies after oral administration of ASA (cited Dressman et al.); details: extrapolated from linear pharmacokinetics, dose not stated
[2] = cited from earlier work
[3] = cited from earlier work; remark: listed apart in the source
[4] = oral solution of 650 mg, four male subjects; cited from earlier work
[5] = cited from earlier work; remark: listed apart in the source
[6] = metabolite after oral administration of ASA
[7] = after oral administration of ASA

| expected peak circulating plasma level [1] [µg/mL] | Compound | elimination half-life [2, 6] [h] | period over which plasma levels increase following administration of ASA [2, 6] | loss or inactivation of the oral dosage due to the first pass effect in the gut and liver ([3]; oral administration) | fraction of the oral dose that is bioavailable ([3]; taken orally, first pass effect) | share of the dose that reached the peripheral circulation intact (AUC oral vs intravenous) [4] [%] | elimination half-life [2, 7] [h] | time to peak plasma levels [2, 7] | pharmacokinetic behavior over dosage range ([2]; dosage range from 30-400 mg) | vascular events prevented ([5]; Dutch TIA Study, any dose above 30 mg daily, oral) [%] | increase of major gastrointestinal and extracranial bleeds ([5]; oral aspirin, studies used dosages of 325 mg) |
| --- | --- | --- | --- | --- | --- | --- | --- | --- | --- | --- | --- |
| ~10 | O=C(O)c1ccccc1O [salicylate, salicylic acid] | 2 to 3 | about 45 minutes |  |  |  |  |  |  |  |  |
|  | CC(=O)Oc1ccccc1C(=O)O [aspirin, acetylsalicylic acid] |  |  | approximately ⅔ | about one to two-thirds | 68 | 0.25 to 0.333 | about 20 minutes | linear | 13 | over 50% |
